Laboratory results reported in the COVID Moonshot data (paper PMC11187573), “Identification of SARS-CoV-2 Mpro inhibitors through deep reinforcement learning for de novo drug design and computational chemistry approaches” (RSC Medicinal Chemistry, 2024).

How the values were obtained:
[1] = molecular target: SARS-CoV-2 Main Protease (SARS-CoV-2) (UniProt P0DTD1)
[2] = molecular target: SARS-CoV-2 Main Protease (SARS-CoV-2) (UniProt P0DTD1); remark: listed apart in the source

SMILES	relative solubility at 20 uM	relative solubility at 100 uM	inhibition ([1]; 50.0 µM)	inhibition ([2]; 20.0 µM)	inhibition ([2]; 50.0 µM)	inhibition ([1]; 20.0 µM)	IC50 [2]	IC50 [1]
C#CCN1CCN(C(=O)CCl)CC1	1	1	27.2%	6.86%	7.12%			
CNC(=O)OC1CCN(C(=O)c2ccccc2)CC1	1	1	19.2%	0%	0%			
CCN(Cc1cccc(-c2ccncc2)c1)C(=O)Cc1noc2ccccc12	0.98	0.85	-15.8%	0%		-25.4%		
Cc1ccc(NC(=O)Cc2cc3cccnc3[nH]2)s1	1	0.96	8.28%		7.42%	23.7%		
O=C(CCl)N1CCN(Cc2cccc(CNC(=O)N3CCOCC3)c2)CC1	1	1	32.4%		95.6%	11.7%	50.3 µM	
C=CC(=O)N(c1ccc(C(C)OC)cc1)C(C(=O)Nc1ccccc1Br)c1cccnc1 (stereo unspecified)	0.89	0.84	9.73%	0%		3.04%		
O=C(Cc1cncnc1)Nc1cc(F)cc(OC2CC(=O)N2)c1 (stereo unspecified)	0.99	0.99	87.8%		45.7%	52.8%		
COc1ccccc1OCCN(C)C(=O)c1cc(=O)[nH]c2ccc(Cl)cc12	1	0.99	4.43%		0%	0.453%		
O=C(NCC1COc2ccccc2O1)c1cc(=O)[nH]c2cc(F)ccc12 (stereo unspecified)	0.98	0.62	-2.5%		3.98%	-0.372%		
Cc1ncncc1NC(=O)Nc1ccccc1	0.99	0.99	-0.628%	6.04%	20.1%	-2.06%		
Cc1ccncc1NC(=O)Cc1cc(Cl)c2c(c1)OCCO2	1	1	22.2%		10.9%	9.83%		
C=CC(=O)N(c1ccc(C(C)(C)C)cc1)C(C(=O)NCc1ccc(F)cc1)c1cccnc1 (stereo unspecified)	0.98	0.66	76.4%	79.3%	100%	51.2%	10.5 µM	
C=CC(=O)N(c1cc(C(C)(C)C)on1)C(C(=O)Nc1cccc(CC)c1)c1cccnc1 (stereo unspecified)	0.87	0.76	43.1%	6.79%		15.6%		
Cc1cc(C)cc(NC(=O)Cc2cnn(C)c2C)c1	1	1.01	-5.28%		0%	-12.1%		
O=C(Cc1cccc(Cl)c1)Nc1nncs1	1	0.78	-3.05%		0%	-9.94%		
CC1CN(Cc2cccc(Cl)c2)CCN1C(=O)CCl (stereo unspecified)	0.99	0.99	93.9%	94.6%	100%	88.3%	2.08 µM	
CC1(C)Cc2cccc(OCCNC(=O)c3cc(=O)[nH]c4ccc(Cl)cc34)c2O1	0.97	0.91	28.8%		18.7%	5.99%		
C=CC(=O)N(c1ccc2ncsc2c1)C(C(=O)Nc1ccc(Br)cc1)c1cccnc1 (stereo unspecified)	0.75	0.64	34.9%	3.05%		17.4%		
COc1ccccc1OC(C)CNC(=O)c1cc(=O)[nH]c2cc(F)ccc12 (stereo unspecified)	1	0.99	59%		5.65%	20%		
O=C(Cc1cccnc1)Nc1cccc(OC2CC(=O)N2)c1 (stereo unspecified)	0.97	0.99	71.8%		26.4%	39.6%		
O=C(Cc1c[nH]c2ncccc12)N(Cc1c(F)cccc1Cl)c1ccc2[nH]c(=O)[nH]c2c1	0.95	0.88	-1.08%		12.4%	6.29%		
C=CC(=O)N(c1ccc(C(C)(C)C)cc1)C(C(=O)NC(C)C)c1cccnc1 (stereo unspecified)	1	1	0.416%	0%	0%	-1.73%		
Cc1ccncc1NC(=O)Cc1cccc(F)c1	1.01	1	65.3%		40.9%	39.6%		
O=C(c1ccccc1)N1CCN(C(=O)C2CCOCC2)CC1	1	1	6.27%	0.98%	5.34%	2.9%		
Cc1ccc(NC(=O)Cc2cccc(Cl)c2)cn1	0.99	1	3.35%		0%	0.36%		

SMILES	relative solubility at 20 uM	relative solubility at 100 uM	inhibition ([1]; 50.0 µM)	inhibition ([2]; 20.0 µM)	inhibition ([2]; 50.0 µM)	inhibition ([1]; 20.0 µM)	IC50 [2]	IC50 [1]
C=CC(=O)N(c1ccc(C(F)(F)F)cc1)C(C(=O)NCCc1cccc(F)c1)c1cncc(C)c1 (stereo unspecified)	0.91	0.73	63%		91.6%	38.8%	7.72 µM	
CC(C(=O)Nc1cccc(OC2CC(=O)N2)c1)c1cnccn1 (stereo unspecified)	1	1	17%	0%	0%			
Cc1ccncc1NC(=O)[C@@H]1CNC(=O)O1 (stereo in doubt)	1	1	1.36%		8.86%	1.35%		
C=CC(=O)N(c1ccc(S(F)(F)(F)(F)F)cc1)C(C(=O)Nc1ccc(OC)cc1)c1cccnc1 (stereo unspecified)	0.83	0.71	30.6%	10.4%		15.7%		
O=C(Cc1c[nH]c2ncccc12)NCc1cccc(Cl)c1	1	0.96	9.03%	1.98%		7.73%		
O=C(Cc1cccc(Cl)c1)Nc1cnccc1O	1	1	-2.06%		0%	0.0135%		
Cc1cccc(NC(=O)C(C#N)C(=O)C2CCCC2)c1 (stereo unspecified)	1	1	-8.28%	0.78%	0%			
Cc1ccccc1C(C(=O)NCC(O)Cn1ccnn1)c1ccccc1 (stereo unspecified)	1	1.01	4.24%	0%		0.424%		
C=CC(=O)N(c1ccc(C(F)(F)F)cc1)C(C(=O)NCCc1cccc(F)c1)c1cncc(Cl)c1 (stereo unspecified)	0.94	0.28	68.2%		82.1%	50.2%	4.84 µM	
C=CC(=O)N(c1ccc(C(C)(C)C)cc1)C(C(=O)NCCc1cccc(F)c1)c1cncc(C)c1 (stereo unspecified)	0.8	0.28	78.2%		0%	49%		
O=C(CCl)N1CCN(Cc2cc(O)ccc2O)CC1	0.99	0.99	74.5%	63.9%	89.9%	57.4%	9.28 µM	
C=CC(=O)N(c1ccc(C(C)(C)C)cc1)C(C(=O)NC)c1cccnc1 (stereo unspecified)	1.01	0.99	69.7%	57.4%	100%	42.1%	17 µM	
CS(=O)(=O)Cc1ccc(C(=O)Nc2cccnc2)o1	1	1	6.26%	0%		0.469%		
CN(C)C(=O)C[C@@H]1CN(C(=O)c2cnn3c2CCC3)c2ccc(Cl)cc21 (stereo in doubt)	1	1	-10.8%	0%		-17.5%		
Cc1ccncc1NC(=O)Nc1cncc(C#N)c1	1	1	3.96%		15.5%	3.67%		
Cc1cc(C(C)(C)C)ccc1OC[C@H](O)Cn1cnccc1=O (stereo in doubt)	1.01	1	16.5%		0%	-3.67%		
N#CC(C(=O)Nc1ccccc1)C(=O)c1cccc(Cl)c1 (stereo unspecified)	0.98	0.98	44%	0%	0%	24.1%		
CN(C(=O)C1CCOc2ccc(Cl)cc21)c1ccc(Cl)cn1 (stereo unspecified)	0.99	0.98	9.88%		0%	0.542%		
COc1ccc(C(=O)Nc2cccc(/C=C3/C(=O)NC(=O)c4ccccc43)c2)cc1	0.48	0.54	-22.9%		34.2%	-3.55%		
COc1ccc2c(c1)C(C(=O)Nc1cnccc1-n1cccn1)CCC2 (stereo unspecified)	0.99	0.95	7.3%		0%	-15.2%		
C=CC(=O)N(c1ccc(N(C)C)c(C)c1)C(C(=O)NC(C)(C)C)c1cccnc1 (stereo unspecified)	0.98	0.95	8.8%	0%	14.4%	2.89%		
NS(=O)(=O)c1ccc(N2CCC(c3ccco3)CC2)cc1	1	0.83	8.47%	45.9%	38.9%	5.4%		
Sc1nc2ccccc2c2nc(CCc3ccccc3)nn12	0.93	0.89	-6.97%		0%	-0.837%		
O=C(CCl)N1CCCC(c2nc(-c3cccnc3)nc3ccccc23)C1 (stereo unspecified)	0.9	0.89	31.8%		100%	7.84%		
O=C(CCNC(=O)c1c[nH]c2ccccc12)Nc1ccc(-n2cnc3ccccc32)cc1	0.82	0.54	8.08%		43.9%	-3.48%		

SMILES	relative solubility at 20 uM	relative solubility at 100 uM	inhibition ([1]; 50.0 µM)	inhibition ([2]; 20.0 µM)	inhibition ([2]; 50.0 µM)	inhibition ([1]; 20.0 µM)	IC50 [2]	IC50 [1]
CC(C)NC1CCN(c2ccc(S(N)(=O)=O)cc2)CC1	1	0.98	-1.56%	0.29%	0.505%	-1.27%		
O=C(Cn1nnc2ccccc21)NCc1ccc(Oc2cccnc2)c(F)c1	0.99	0.99	-19.3%	0%		-21.1%		
O=C(CC(=O)N1CCOCC1)NC1CCCCC1	0.99	1	6.01%	0%	0%	19.8%		
O=C(Cc1c[nH]c2ncccc12)NCc1cc(Cl)ccn1	1	0.98	8.45%	0%		2.58%		
Cc1ccncc1NC(=O)Cc1cccc(I)c1	1	1	39.7%		64.3%	17.4%	69.1 µM	
O=C(CSC1=NCCS1)c1cc(Cl)ccc1Cl	0.77	0.64	2.86%		44.8%	5.24%		
Cc1nc(-c2cccc(CNC(=O)Nc3cccc(CN4CCCC4=O)c3)c2)n[nH]1	0.98	0.98	2.95%		0%	2.12%		
O=C(Cc1c[nH]c2ncccc12)NCc1ccc(Cl)cc1	1	0.95	3.45%	0%		2.99%		
C=CC(=O)N(c1ccc(C(C)(C)C)cc1)C(C(=O)NC(C)(C)C)c1cnccc1C (stereo unspecified)	0.99	1	-12.5%	0%	0%	-14%		
CC(NC(=O)c1ccc2cn[nH]c2c1)C(=O)Nc1ccc(-n2cnc3ccccc32)cc1 (stereo unspecified)	0.7	0.51	3.73%		12.8%	13%		
C=CC(=O)Nc1cccc(OC2CC(=O)N2)c1 (stereo unspecified)	1	1	2.19%		2.88%	5.39%		
Cc1ccncc1NC(=O)C(C)Cc1ccccc1 (stereo unspecified)	1	1	-128%		0%	-54.9%		
C=CC(=O)N(C(C(=O)NC(C)(C)C)c1cccnc1)C1CC12CC(C)(C)C2 (stereo unspecified)	1	0.99	15.5%		3.54%	13%		
CC(=O)NCc1cccc(NC(=O)Cc2cncnc2)c1	1.01	1	6.22%		0%	3.15%		
O=C(CCl)Nc1cccc(-c2ccc3c(c2)CCCC3)c1	0.9	0.87	15.2%		47.7%	10.8%		
CC(C(=O)Nc1cccc(NC2CCCC2)c1)c1cnccn1 (stereo unspecified)	1	0.98	0.913%	0%	-2.15%	-2.77%		
NS(=O)(=O)c1ccc(N2CCC(CN3CCCCC3)CC2)cc1	1	1.01	-2.58%		22.7%	-23.1%		
CCc1nnnn1-c1ccccc1NC(=O)C1(c2cncc(Br)c2)CC1	1	1	10.2%	0%	0%			
CCC(=O)O[C@@H](OP(=O)(CCCCc1ccccc1)CC(=O)N1C[C@H](C2CCCCC2)C[C@H]1C(=O)O)C(C)C (stereo in doubt)	1	0.92	-0.253%	3.17%		4.91%		
CCCc1cc2c(cc1S(=O)(=O)N1CCN(c3ccccc3)CC1)OCO2	0.91	0.92	-17.1%		68.3%	8.44%	16 µM	
O=C(CCl)N1CCN(S(=O)(=O)c2cccc(F)c2)CC1	1	1	104%	96.6%	96.8%	97.3%	2.02 µM	4.55 µM
COc1ccc(S(=O)(=O)N2CCN(C(=O)c3cc(=O)[nH]c4cc(F)ccc34)CC2)cc1	0.87	0.9	-3.27%		0%	5.98%		
Cc1ccncc1NC(=O)Cc1cccc(CO)c1	1	1	6.05%		1.14%	2.87%		
C=CC(=O)N(c1ccc(SC)cc1)C(C(=O)NC(C)(C)C)c1cccnc1 (stereo unspecified)	1	0.99	7.75%	0%		3.54%		
CCn1c(=O)n(CC(=O)Nc2c(C)ccnc2C)c2ccccc21	1	1	-2.86%		0%	-1.64%		
